The source of these data is patent publication US8513260B2, “Pyrazinylpyrazoles” (Bayer CropScience AG, priority 2009, dated 2013).

One data set relates to Boophilus microplus. The experiment in a line: Boophilus microplus test (BOOPMI injection). The data set is classed as in vivo. The settings on record: 20 μg animal, injection into the abdomen, after 7 days, laying of fertile eggs; for pest or weed control at 0.02 mg: Rhipicephalus microplus, 168 h, read-out: efficacy. The procedure:
Boophilus microplus Test (BOOPMI Injection) Solvent: dimethyl sulphoxide To prepare an appropriate active ingredient formulation, 10 mg of active ingredient are mixed with 0.5 ml of solvent and the concentrate is diluted with solvent to the desired concentration. The active ingredient solution is injected into the abdomen (Boophilus microplus), and the animals are transferred into dishes and stored in a climate-controlled room. The efficacy is assessed by laying of fertile eggs. After 7 days, the efficacy in % is determined. 100% means that none of the ticks has laid any fertile eggs.

Data set [1] can be described thus: logP by HPLC on reversed-phase columns (C 18), EEC Directive 79/831 Annex V.A8. The note with it: reversed-phase C18 HPLC column, read-out: log P. The data set is classed as physicochemical. An excerpt:
[table] The calibration is effected with unbranched alkan-2-ones (having 3 to 16 carbon atoms) with known logP values (logP values determined on the basis of the retention times by linear interpolation between two successive alkanones).

Data set [2] relates to red spider mite (Tetranychus urticae). As to the kind of experiment: Tetranychus test, OP-resistant (TETRUR spray treatment). The data set is classed as in vivo. The note with it: bean leaf discs, after 6 days; for pest or weed control at 500 g/ha: Tetranychus urticae, foliar, 144 h, read-out: efficacy. A digest of the protocol: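 Bean leaf discs (Phaseolus vulgaris) infested with all mite stages were sprayed with active ingredient diluted in emulsifier-containing water at the desired concentration. Mortality read after 6 days as % efficacy, where 100% = all mites killed and 0% = none killed.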

The subject of data set [3] is adult engorged Boophilus microplus females of the SP-resistant Parkhurst strain. The experiment in a line: Boophilus microplus (dip). The class given is in vivo. The settings on record: after 7 days, laying of fertile eggs; for pest or weed control at 100 ppm: Rhipicephalus microplus, 168 h, read-out: efficacy; for efficacy: 100 ppm. The procedure: Boophilus microplus (dip)
Test animals: adult engorged Boophilus microplus females of the SP-resistant Parkhurst strain
Solvent: dimethyl sulphoxide
10 mg of active ingredient are dissolved in 0.5 ml of dimethyl sulphoxide. For the purpose of preparing a suitable formulation, the active ingredient solution is diluted with water to the concentration desired in each case. This active ingredient preparation is pipetted into tubes. 8-10 ticks are transferred into a further tube with holes. The tube is immersed into the active ingredient formulation, and all ticks are completely wetted. After the liquid has run out, the ticks are transferred onto filter discs in plastic dishes and stored in a climate-controlled room. The activity is assessed after 7 days by laying of fertile eggs. Eggs whose fertility is not outwardly visible are stored in glass tubes in a climate-controlled cabinet until the larvae hatch. Efficacy of 100% means that none of the ticks has laid any fertile eggs.

The test system of data set [4] is larvae of the mustard beetle (Phaedon cochleariae). The experiment in a line: Phaedon test (PHAECO spray treatment). The note with it: Chinese cabbage discs, after 7 days; for pest or weed control at 500 g/ha: Phaedon cochleariae, 168 h, read-out: efficacy; for efficacy: 500 g/ha. The class given is in vivo. A digest of the protocol: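 Chinese cabbage leaf discs were sprayed with compound formulated in acetone/dimethylformamide with alkylaryl polyglycol ether emulsifier and diluted in emulsifier-containing water. After drying, discs were populated with mustard beetle larvae. Efficacy (% larvae killed; 100% = all dead) was scored after 7 days.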

The subject of another data set is Lucilia cuprina larvae. The experiment in a line: Lucilia cuprina test (LUCICU). The class given is in vivo. The settings on record: 48 h, treated horse meat, after 2 days, read-out: efficacy (kill). The procedure:
Lucilia cuprina Test (LUCICU) Solvent: dimethyl sulphoxide To prepare an appropriate active ingredient formulation, 10 mg of active ingredient are mixed with 0.5 ml of dimethyl sulphoxide and the concentrate is diluted with water to the desired concentration. Vessels containing horse meat treated with the active ingredient preparation of the desired concentration are populated with about 20 Lucilia cuprina larvae. After 2 days, the kill in % is determined. 100% means that all of the larvae have been killed; 0% means that none of the larvae have been killed.

Another data set relates to adult Musca domestica. The experiment in a line: Musca domestica test. The settings on record: after 2 days. The data set is classed as in vivo. The procedure: Musca domestica Test Solvent: dimethyl sulphoxide To prepare an appropriate active ingredient formulation, 10 mg of active ingredient are mixed with 0.5 ml of dimethyl sulphoxide and the concentrate is diluted with water to the desired concentration. Vessels containing a sponge treated with the active ingredient preparation of the desired concentration are populated with adult Musca domestica. After 2 days, the kill in % is determined. 100% means that all of the flies have been killed; 0% means that none of the flies have been killed.

Data set [5] has as its system green peach aphid (Myzus persicae). The experiment in a line: Myzus test (MYZUPE spray treatment). The class given is in vivo. The note with it: Chinese cabbage discs, after 6 days; for efficacy: 500 g/ha. As to the method: Myzus Test (MYZUPE Spray Treatment) Solvent: 78 parts by weight of acetone • • 1.5 parts by weight of dimethylformamide Emulsifier: 0.5 part by weight of alkylaryl polyglycol ether To prepare an appropriate active ingredient preparation, 1 part by weight of active ingredient is mixed with the stated amounts of solvent and emulsifier, and the concentrate is diluted with emulsifier-containing water to the desired concentration. Discs of Chinese cabbage (Brassica pekinensis) infested by all stages of the green peach aphid (Myzus persicae) are sprayed with an active ingredient preparation of the desired concentration. After 6 days, the efficacy in % is determined. 100% means that all of the aphids have been destroyed; 0% means that none of the aphids have been destroyed.

In data set [6] the test system is unfed adult fleas (Ctenocephalides felis). The experiment in a line: Ctenocephalides felis test (CTECFE). The data set is classed as in vivo. The settings on record: 100 ppm in citrated cow's blood, after 2 days; for pest or weed control at 100 ppm: Ctenocephalides felis, 48 h, read-out: efficacy (kill). The procedure: Ctenocephalides felis Test ([…]) Solvent: 1 part by weight of dimethyl sulphoxide For the purpose of preparing an appropriate active ingredient formulation, 10 mg of active ingredient are mixed with 0.5 ml of dimethyl sulphoxide. A portion of the concentrate is diluted with citrated cow's blood and the desired concentration is established. About 20 unfed adult fleas (Ctenocephalides felis) are introduced into a chamber closed at the top and bottom with gauze. A metal cylinder, the bottom of which is closed with Parafilm, is placed onto the chamber. The cylinder contains the blood/active ingredient preparation, which can be imbibed by the fleas through the Parafilm membrane. After 2 days, the kill in % is determined. 100% means that all fleas have been killed; 0% means that none of the fleas have been killed.

In data set [7] the test system is caterpillars of the armyworm (Spodoptera frugiperda). The experiment in a line: Spodoptera frugiperda test (SPODFR spray treatment). The data set is classed as in vivo. The note with it: maize leaf discs, after 7 days; for efficacy: 500 g/ha; for pest or weed control at 500 g/ha: Spodoptera frugiperda, foliar, 168 h, read-out: efficacy. A digest of the protocol:
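Maize leaf discs sprayed with the compound at the desired concentration, formulated in acetone/dimethylformamide with alkylaryl polyglycol ether emulsifier and diluted in water, then infested with armyworm caterpillars after drying. Efficacy read after 7 days as % caterpillars killed (100% = all dead, 0% = none).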

Setting [8] is: pH 2.7, * LC-MS, acidic range pH 2.7, 0.1% aqueous formic acid and acetonitrile.

Where two headings read alike, the source gives them in different places.

Consider `CCOc1nccnc1-n1nc(C(F)(F)F)c(-c2ccc(Br)cc2)c1N` [Ex. 5], for which the pest or weed control at 0.02 mg in the data set with Boophilus microplus amounted to 100%. Moreover, the chromatographic logP in [1] (pH 2.3, ** acidic range pH 2.3, 0.1% aqueous phosphoric acid and acetonitrile) was 3.6. The results for the pest or weed control at 500 g/ha in data set [2] (500 g/ha) and in data set [4] were 80% and 100%, respectively. The pest or weed control at 100 ppm (in [3]; with Lucilia cuprina larvae) was 100% in each case. In the data set with adult Musca domestica (100 ppm), the “efficacy (kill)” value is 80%.
As for `C=Cc1nn(-c2nccnc2OC)c(N)c1-c1cc(Cl)cc(Cl)c1` [Ex. 8], the efficacy with Boophilus microplus is 100%; in [3], 90%; in [5], 100%.
Regarding `COc1nccnc1-n1nc(C(F)(F)C(F)(F)F)c(-c2cc(Cl)cc(C(F)(F)F)c2)c1N` [Ex. 15], the efficacy (with Boophilus microplus; in data set [2] (500 g/ha); in [3]; in data set [5]; in [4]; in data set [7]) was 100% each time. Further, the “efficacy (kill)” value (in data set [6]; with adult Musca domestica (100 ppm)) was 95% each time.
For `COc1nccnc1-n1nc(C(F)(F)Cl)c(-c2cc(Cl)cc(C(F)(F)F)c2)c1N` [Ex. 17], the efficacy (with Boophilus microplus; in data set [2] (500 g/ha); in data set [3]; in [5]; in data set [4]; in [7]) was 100% in each case. Further, the “efficacy (kill)” value (in data set [6]; with adult Musca domestica (100 ppm)) was 100% throughout.
As to `COc1nccnc1-n1nc(C(F)(F)F)c(-c2ccc(Cl)c(C(F)(F)F)c2)c1N` [Ex. 18], the efficacy in the data set on Boophilus microplus was determined as 100%; in data set [2] (500 g/ha) it was 100%; in data set [3], 100%; in [5], 90%; in [4], 100%; in [7] it was 83%.
As for `COc1nccnc1-n1nc(C(C)(F)F)c(-c2ccc(Cl)c(C(F)(F)F)c2)c1N` [Ex. 20], the efficacy (in the data set on Boophilus microplus; in data set [2] (500 g/ha); in data set [3]; in data set [5]; in data set [4]; in [7]) was 100% in each case.
For the molecule `COc1nccnc1-n1nc(C(F)(F)F)c(-c2cc(Br)cc(Br)c2)c1N` [Ex. 22], in the data set on Boophilus microplus, the pest or weed control at 0.02 mg was 100%. In data set [1] (setting [8]), the chromatographic logP came to 4.1. In addition, the pest or weed control at 500 g/ha turned out to be 100% in data set [2] (500 g/ha); 100% in data set [5] (Myzus persicae, 144 h, read-out: efficacy); 100% in [4]; 100% in data set [7]. Also, the pest or weed control at 100 ppm was 95% in data set [3], 95% in data set [6] and 100% with Lucilia cuprina larvae.
As for `COc1nccnc1-n1nc(C(F)(F)C(F)(F)OC)c(-c2cc(Cl)cc(C(F)(F)F)c2)c1N` [Ex. 47], the efficacy stood at 100% in the data set with Boophilus microplus; 100% in data set [2] (500 g/ha); 100% in data set [3]; 80% in data set [5]; 100% in data set [4]; 100% in [7]. In addition, the “efficacy (kill)” value in [6] is 100%; in the data set with adult Musca domestica (100 ppm) it was 80%.
In the case of `COc1cc(-c2c(C(F)(F)C(F)(F)F)nn(-c3nccnc3OC)c2N)cc(Cl)c1OC` [Ex. 51], the pest or weed control at 0.02 mg in the data set on Boophilus microplus was determined as 100%. Besides, the chromatographic logP in data set [1] (setting [8]) was 3.8. In addition, the results for the pest or weed control at 500 g/ha in [2] (500 g/ha), in [4] and in data set [7] were 80%, 100% and 100%, respectively. For the same molecule, the pest or weed control at 100 ppm (in [3]; in data set [6]; in the data set on Lucilia cuprina larvae) was 100% throughout.
As for `COc1nccnc1-n1nc(C(F)(F)F)c(-c2cc(Br)c3c(c2)OCCO3)c1N` [Ex. 132], the efficacy in the data set on Boophilus microplus came out at 100%; in data set [2] (500 g/ha) it was 80%; in data set [3], 100%; in data set [4], 100%; in data set [7], 100%. Further, the “efficacy (kill)” value in data set [6] is given as 100%; with adult Musca domestica (100 ppm) it was 80%.
As for `COc1nccnc1-n1nc(C(F)(F)F)c(-c2cc(Cl)c3c(c2)OCCO3)c1N` [Ex. 133], the efficacy in the data set with Boophilus microplus stood at 100%; in [2] (100 g/ha), 90%; in data set [3], 95%; in data set [4], 100%; in data set [7], 100%. Besides, the “efficacy (kill)” value is 100% in data set [6] and 80% in the data set on adult Musca domestica (20 ppm).
In the case of `COc1nccnc1-n1nc(C(F)(F)F)c(-c2cc(I)c3c(c2)OCO3)c1N` [Ex. 139], the pest or weed control at 0.02 mg in the data set on Boophilus microplus is 100%. The chromatographic logP in data set [1] (setting [8]) stood at 3.27. Also, the pest or weed control at 500 g/ha in [2] (500 g/ha) is 80%; in data set [4], 100%; in data set [7], 100%. Besides, the pest or weed control at 100 ppm (in data set [6]; in the data set with Lucilia cuprina larvae) was 100% throughout.
As to `COc1cc(-c2c(C(F)(F)F)nn(-c3nccnc3OC)c2N)cc(Cl)c1OC` [Ex. 141], the pest or weed control at 0.02 mg in the data set with Boophilus microplus amounted to 100%. Besides, in data set [1] (setting [8]), the chromatographic logP stood at 3.22. In addition, the pest or weed control at 500 g/ha in data set [2] (500 g/ha), in data set [4] and in data set [7] was 100% in each case. The pest or weed control at 100 ppm (in [6]; with Lucilia cuprina larvae) was 100% each time. Further, the “efficacy (kill)” value in the data set with adult Musca domestica (20 ppm) is 80%.
